Results taken from paper PMC11177969, “Comprehensive Analyses of the Effects of the Small-Molecule Inhibitor of the UHM Domain in the Splicing Factor U2AF1 in Leukemia Cells” (Research Square, 2024).
Read-outs that look alike come from different tables or passages of the source.

Columns and labels:
U2AF1-UHM [1] = target: T1, U2AF1-UHM (Homo sapiens, UniProt Q01081); assay: Thermal Shift Assay (TSA) fragment library screening; assay type: binding; details: confirmatory screening in triplicate, read-out: ΔTm (melting temperature change) of U2AF1-UHM
T1 construct: we screened the CCG fragment library from University of Michigan against the U2AF1-UHM domain using the Thermal Shift Assay (TSA)
T1 sequence (Q01081 65-147 limits assumed): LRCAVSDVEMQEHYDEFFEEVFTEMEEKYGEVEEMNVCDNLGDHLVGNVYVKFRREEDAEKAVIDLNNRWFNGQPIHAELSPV
Protocol: To develop a different targeting strategy, we assessed potential tractable binding sites in U2AF1 using computational analysis and determined that the UHM domain of U2AF1 was for identifying hits (Fig.S1).[42] To discover hits, we screened the CCG fragment library from University of Michigan against the U2AF1-UHM domain using the Thermal Shift Assay (TSA). An initial single concentration screening at 200 μM led to identify 149 compounds that gave positive shifts of the melting temperature (ΔTm) in U2AF1-UHM. These compounds were subject to a secondary confirmatory screening in triplicate at 200 μM.

healthy control cells = assay: Toxicity in healthy control cells; assay type: cell-based, human; details: as much as 10 μM
From the text: (§1) Previous studies that introduced U2AF1^S34F in lung epithelial (HBEC3kt)[43], leukemia (K562)[38],[44],[45], and iPSC[37] cell lines have validated the function of U2AF1^S34F in these engineered cell lines while mutation of Q157 is less studied. We therefore focused our study on U2AF1^S34F and examined the effects of SF1–8 on a panel of leukemia cell lines including K562, U937, HL60 with isogenic overexpression of U2AF1^wt or U2AF1^S34F, K562 with isogenic overexpression of SRSF2^wt or SRSF2^P95H, and K562 with Crispr/Cas9 edited SF3B1^wt or SF3B1^E700K (denoted as K562-U2AF1^wt, K562-U2AF1^S34F, U937-U2AF1^wt, U937-U2AF1^S34F, HL60-U2AF1^wt, HL60-U2AF1^S34F, K562-SRSF2^wt, K562-SRSF2^P95H, K562-SF3B1^wt, K562-SF3B1^E700K). […] The data obtained from the engineered leukemia cell lines prompted us to query the activity of SF1–8 in primary MDS cells.
(§2) Figure 3. Growth inhibition activities of SF1–8 in U2AF1, SF3B1, SRSF2 mutant, wild-type leukemia cell lines (A) Dose dependent growth inhibition of U2AF1^S34F, SF3B1^E700K, SRSF2^P95H mutant and isogenic wild-type cell lines by the treatment of SF1–8. (B) Titration of SF1–8 against K562-U2AF1^wt, K562-U2AF1^S34F, MV4–11, HL60 cells using the CellTiter-Glo assay. (C) Toxicity of SF1–8 in human primary MDS cells (U2AF1^S34F) and healthy bone marrow cells.

[2] = tested on: bone marrow cells of healthy control; assay: Colony formation assay; assay type: cell-based, human; details: 1 to 20 μM
From the text: as §1

SPF45-UHM = target: T2, SPF45-UHM (Homo sapiens, UniProt Q96I25); assay: HTRF assay; assay type: binding; details: Fig. 2C; SD of 2 independent experiments in parentheses
T2 sequence (Q96I25 306-385 limits assumed): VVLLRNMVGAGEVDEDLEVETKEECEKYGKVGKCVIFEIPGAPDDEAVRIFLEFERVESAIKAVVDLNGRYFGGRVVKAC
From the text: (§3) To determine the selectivity of SF1–8 against other homologous UHM domains, we measured the IC50 values of SF1–8 to RBM39-UHM, SPF45-UHM and PUF60-UHM using the HTRF assay.[42] […] In the chemical synthesis (Scheme S1), methylation on the pyrazole group in SF1–8 can occur at the N8 or N9 position (Fig.2C). Although the NMR spectra can be used to infer the methyl group position on the pyrazole, we determined the crystal structure of a SF1–8 precursor to clearly confirm the methyl group is at N9 in SF1–8 (Fig.2C). To further probe the interaction of SF1–8 with U2AF1-UHM, we synthesized SF1–8 analogs and developed the structure activity relationship (SAR) (Fig.2C). […] A longer alkyl group was tolerated at the N8 position but not at the N9 position. […] The crystal structure of a 7c precursor experimentally determined from SCXRD again confirmed the location of the propyl group (Fig. 2C).

PUF60-UHM = target: T3, PUF60-UHM (Homo sapiens, UniProt Q9UHX1); assay: HTRF assay; assay type: binding; details: Fig. 2C
T3 sequence (Q9UHX1 462-549 limits assumed): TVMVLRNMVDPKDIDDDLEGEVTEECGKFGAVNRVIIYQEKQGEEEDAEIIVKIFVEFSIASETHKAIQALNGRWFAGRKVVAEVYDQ
From the text: as §3

RBM39-UHM = target: T4, RBM39-UHM (Homo sapiens, UniProt Q14498); assay: HTRF assay; assay type: binding; details: Fig. 2C; SD of 2 independent experiments in parentheses
T4 sequence (Q14498 445-508 limits assumed): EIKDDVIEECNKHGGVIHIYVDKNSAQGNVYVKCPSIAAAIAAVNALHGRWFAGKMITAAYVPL
From the text: as §3

K562-SF3B1^wt = assay: Dose dependent growth inhibition; assay type: cell-based; details: Fig. 3A
From the text: as §1, §2

K562-SRSF2^wt = assay: Dose dependent growth inhibition; assay type: cell-based; details: Fig. 3A
From the text: as §1, §2

U937-U2AF1^S34F = assay: Dose dependent growth inhibition; assay type: cell-based; details: Fig. 3A
From the text: as §1, §2

HL60-U2AF1^S34F = assay: Dose dependent growth inhibition; assay type: cell-based; details: Fig. 3A
From the text: as §1, §2

K562-SRSF2^P95H = assay: Dose dependent growth inhibition; assay type: cell-based; details: Fig. 3A
From the text: as §1, §2

K562-SF3B1^E700K = assay: Dose dependent growth inhibition; assay type: cell-based; details: Fig. 3A
From the text: as §1, §2

U937-U2AF1^wt = assay: Dose dependent growth inhibition; assay type: cell-based; details: Fig. 3A
From the text: as §1, §2

HL60-U2AF1^wt = assay: Dose dependent growth inhibition; assay type: cell-based; details: Fig. 3A
From the text: as §1, §2

[3] = tested on: bone marrow cells from an MDS specimen that harbored U2AF1^S34F; assay: Toxicity in primary MDS cells; assay type: cell-based; details: Homo sapiens, Bone marrow cell, U2AF1^S34F VAF 41%, read-out: viable cells
From the text: as §1, §2

K562-U2AF1^wt = assay: Growth inhibition / cell viability (CellTiter-Glo); assay type: cell-based
From the text: as §1, §2

K562-U2AF1^S34F = assay: Growth inhibition / cell viability (CellTiter-Glo); assay type: cell-based
From the text: as §1, §2

MV-4–11 = assay: Growth inhibition titration (CellTiter-Glo); assay type: cell-based; details: Homo sapiens, MV4-11; native cell line carrying U2AF1^wt
From the text: as §1, §2

HL-60 = assay: Growth inhibition titration (CellTiter-Glo); assay type: cell-based; details: Homo sapiens, native cell line carrying U2AF1^wt
From the text: as §1, §2

K562-U2AF1^S34F cells = assay: Western blots of select genes; assay type: cell-based; details: western blot
From the text: To understand the underlying mechanisms of the differential effects of SF1–8 on K562-U2AF1^S34F, we performed an RNA-seq experiment on K562-U2AF1^S34F cells treated with SF1–8 and control (Fig.4). […] When the 99 genes were mapped to KEGG pathways, the top six enriched pathways were protein digestion and absorption, extracellular matrix-receptor interaction, focal adhesion, PI3K-Akt signaling pathway, human papillomavirus infection, and AGE-RAGE signaling pathway (Fig.S2). To determine if the protein levels of these genes were affected by their mRNA changes, we performed the western blots of select genes. […] Because of the role U2AF1 in RNA splicing, we asked if analysis of the isoform pattern changes may provide insight to explain the different observations between RNA-seq and western blot data. In the transcript analysis, we identified low FPKM numbers of three BCL2 transcripts (Fig.S3) that explained the relatively low BCL2 protein levels in K562. A significant increase of the BCL-2b transcript was also found. […] Besides BCL2, BCLXL (encoded by BCL2L1) and MCL1 have isoforms (BCL-XS and MCL-1S) that had apoptotic functions. K562 cells expressed only the anti-apoptotic MCL1 transcript and the expression was not affected by SF1–8 (not shown). […] Another frequently studied gene involved in apoptosis regulation is survivin.[48],[49]
Figure 4. RNA-seq experiment of K562-U2AF1^S34F cells treated with SF1–8 and the western blot of select genes. […] (C) Western blots of c-CBL, ATF3, and BCL-2 in K562-U2AF1^wt, K562-U2AF1^S34F treated with SF1–8. (D) Heatmap of top 99 differentially regulated genes in K562-U2AF1^S34F treated with SF1–8.

U2AF1-UHM [4] = target: T1, U2AF1-UHM; assay: HTRF assay, inhibition of binding between U2AF1-UHM and U2AF2-ULM
From the text: TSA data provided no information of the binding site in U2AF1-UHM. To identify the binding sites of both hits to U2AF1-UHM, we synthesized CCG211578 (named Hit1/SF1–8) and CCG210084 (named Hit2/9 in Fig.2C) and asked if they inhibited the binding between U2AF1-UHM and U2AF2-ULM using our previously developed HTRF assay.[42] […] The IC50 values of SF1–8 and Hit2 correlated with the ΔTm values observed in TSA. We have reported that the conserved Trp binding site in U2AF1-UHM dominated the binding affinity between U2AF2-ULM and U2AF1-UH.[42]

[5] = Fig. 2C, SD of 2 independent experiments in parentheses, read-out: IC50 U2AF1
[6] = representative titration curves, Fig. 2B, read-out: IC50 against U2AF1-UHM

Structure (SMILES): Cn1nc(C2(C)CCNCC2)cc1O [SF1–8]
- ΔTm at 200 µM (U2AF1-UHM [1]): 2.02 °C
- effect on viable cells (healthy control cells): did not significantly decrease 20% of viable cells
- toxicity in colony formation assay [2]: no significant toxicity
- IC50 (SPF45-UHM): 748 µM
- IC50 (PUF60-UHM): 523 µM
- IC50 (RBM39-UHM): 221 µM
- effect on cell viability (K562-SF3B1^wt): but not their isogenic wild-type cells
- effect on cell viability (K562-SRSF2^wt): no activity
- effect on cell viability (U937-U2AF1^S34F): no activity
- effect on cell viability (HL60-U2AF1^S34F): reduced cell viability
- effect on cell viability (K562-SRSF2^P95H): no activity
- effect on cell viability (K562-SF3B1^E700K): selectively decreased the viability
- effect on cell viability (U937-U2AF1^wt): no activity
- effect on cell viability (HL60-U2AF1^wt): reduced cell viability
- viability at 10 µM [3]: 20%
- effect on cell viability (K562-U2AF1^wt; Fig. 3A): but not their isogenic wild-type cells
- activity in dose titration (K562-U2AF1^wt; dose titration, CellTiter-Glo): no activity
- effect on cell viability (K562-U2AF1^S34F; Fig. 3A): selectively decreased the viability
- IC50 (K562-U2AF1^S34F; dose titration, CellTiter-Glo): 1.98 µM
- IC50 (MV-4–11): > 100 µM
- IC50 (HL-60): > 100 µM
- ATF-3 protein level (K562-U2AF1^S34F cells): increase of ATF-3 was confirmed
- BCL2 protein level (K562-U2AF1^S34F cells): decreased BCL2
- c-CBL protein level (K562-U2AF1^S34F cells): no change of c-CBL
- IC50 (U2AF1-UHM [4]; [5]): 59.33 ± 0.02 µM
- selectivity against three other UHM domains (U2AF1-UHM [4]; U2AF1-UHM vs RBM39-UHM, SPF45-UHM, PUF60-UHM): 4–12 fold
- IC50 (U2AF1-UHM [4]; [6]): 59.3 µM

Structure (SMILES): CCCn1nc(O)cc1C1(C)CCNCC1 [8c]
- IC50 (SPF45-UHM): 362 µM
- IC50 (PUF60-UHM): 621 µM
- IC50 (RBM39-UHM): 386 µM
- IC50 (U2AF1-UHM [4]; [5]): 34.1 µM

Structure (SMILES): CCCn1nc(C2(C)CCNCC2)cc1O [7c]
- IC50 (SPF45-UHM): 62.4 µM
- IC50 (PUF60-UHM): 541 µM
- IC50 (RBM39-UHM): 310 µM
- IC50 (U2AF1-UHM [4]; [5]): 53.1 µM

Structure (SMILES): CC(C)n1nc(O)cc1C1(C)CCNCC1 [8d]
- IC50 (SPF45-UHM): 354 µM
- IC50 (PUF60-UHM): 459 µM
- IC50 (RBM39-UHM): 395 µM
- IC50 (U2AF1-UHM [4]; [5]): 71.6 µM

Structure (SMILES): CC1(c2cc(O)[nH]n2)CCNCC1 [compound 9]
- ΔTm at 200 µM (U2AF1-UHM [1]): 1.5 °C
- IC50 (SPF45-UHM): > 1000 µM
- IC50 (PUF60-UHM): 992 µM
- IC50 (RBM39-UHM): 686 µM
- IC50 (U2AF1-UHM [4]; [5]): 343 ± 62.4 µM
- IC50 (U2AF1-UHM [4]; [6]): 328 µM

Structure (SMILES): CCC1(c2cc(O)n(C)n2)CCNCC1 [7e]
- IC50 (SPF45-UHM): 519 µM
- IC50 (PUF60-UHM): > 1000 µM
- IC50 (RBM39-UHM): > 1000 µM
- IC50 (U2AF1-UHM [4]; [5]): 383 µM
